Patent US20130096099A1, “METHOD OF TREATING BRAIN CANCER” (NIIKI PHARMA INC., priority 2010, published 2013)
“Also recorded” adds a separate entry of the source.

Experiments:
[1] = tested on: U87 cell line; details: Bowles et al., J. Neurosurg., 73:248-253 (1990); cited from earlier work
[2] = tested on: glioma cell line U87; assay: MTT assay in 3-dimentional tumor model (HuBiogel) derived from glioma cell line U87; type: cell-based
Protocol: (§1) The compound sodium trans-[tetrachlorobis(1H-indazole)ruthenate(III)] was tested in a 3-dimentional tumor model derived from glioma cell line U87. Specifically, cells were trypsinized, washed, counted by trypan blue exclusion. Tumor beads were then prepared by mixing 20,000 cells/10 μl of HuBiogel (4 mg/mL) (See U.S. patent application Ser. No. 10/546,506, which is incorporated herein by reference). The 3-D tumor beads were cultivated for 72 hours in multi-well plates with complete media (10% FBS) in a 37° C. incubator +5% CO2. Mini-tumors were treated with various concentrations of the test compound sodium trans-[tetrachlorobis(1H-indazole)ruthenate(III)] in media (final 0.2-0.3% DMSO) or control (DMSO). Repeated drug treatment was done by removing the culture media and replacing with fresh media with drug compound or DMSO. On Day 3, MTT assay and live-cell staining with Calcein AM were performed (5 beads/assay set).
(§2) Statistical analysis of data sets (Average, T-test, GI-50) was performed using MS-Excel program. […] See e.g., Bowles et al., J. Neurosurg., 73:248-253 (1990).

[3] = tested on: glioma cell line U87; assay: Live-cell staining with Calcein AM / image analysis in 3-D HuBiogel tumor beads; type: cell-based; details: 3-D HuBiogel tumor beads from U87, Calcein AM, Day 3
Protocol: as §1, §2

O=NN(CCCl)C(=O)NCCCl [BCNU, bis-chloronitrosourea]
resistance of U87 cell line to drug [1]: relatively resistant

[Cl][Ru-]([Cl])([Cl])[Cl].[Na+].c1ccc2[nH]ncc2c1.c1ccc2[nH]ncc2c1 [sodium trans-[tetrachlorobis(1H-indazole)ruthenate(III)]]
tumor proliferation activity / growth inhibition (MTT assay) ([2]; 3-D HuBiogel tumor beads from U87, Day 3, FIG. 1): dose-dependent growth inhibition; also recorded: significantly inhibited tumor proliferation activity | GI50 ([2]; 3-D HuBiogel tumor beads from U87, MTT assay on Day 3, read-out: average GI-50 (the drug concentration required for growth inhibition at 50%)): 95 µM | tumor killing in live-cell staining/image analysis [3]: dose-dependent tumor killing effective
